This data set in a line: gradient 5% acetonitrile 3 min, to 50% in 2 min, to 85% in 15 min, held 3 min, 100 µL/min. Particulars: column: Zorbax Extend-C18 2.1 x 50 mm; eluents: water / acetonitrile, 0.1% formic acid. The method in brief:
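Retention times of pure standards were taken from adduct peaks that were selected by computer and manually inspected. Over 3 months, mixtures of ~100 molecules were run by HPLC–quadrupole time-of-flight mass spectrometry in positive and negative ionization mode. The Zorbax Extend-C18 column (2.1 × 50 mm, 1.8 μm) ran at 100 μL/min in water and acetonitrile, each containing 0.1% formic acid, with 40 μL dead volume and 900 μL dwell volume.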
Compound `COc1ccc(S(=O)(=O)N2CCCC(C(=O)NCC3CCCO3)C2)cc1OC` (centres undefined) gave an RP-LC retention time of 684 s.
The figure for `COC(=O)C(C)n1cc(-c2nc(-c3ccc(Cl)cc3)no2)ccc1=O` (centres undefined) is 950 s; for `Cc1ccc(S(=O)(=O)N2CCCCCC2)cc1-c1nnc(-c2ccc(F)cc2)o1` it is 1220 s.
The figure for `COc1ccc(-c2nocc2CCC(=O)O)cc1` is 712 s.
The figure for `O=C(c1cn(-c2ccc(-c3nc(C4CC4)no3)cn2)cn1)N1CCSCC1` is 819 s.
In the case of `CN(Cc1nc(-c2ccc(N3CCCCC3)nc2)no1)C1CCCCC1`, the RP-LC retention time amounted to 666 s.
The figure for `CCc1nncn1C1CCN(S(=O)(=O)c2ccc(F)cc2)CC1` is 676 s; for `c1ccc(CCNc2nnc(-c3nc(C4CC4)no3)c3ccccc23)nc1` it is 629 s; for `c1cc2c3c(cccc3c1)NC1(CCC3(CC1)Nc1cccc4cccc(c14)N3)N2` it is 1200 s.
The figure for `Cc1ccc2[nH]cc(CCN3CC(C(=O)NC4CCCCCC4)CC3=O)c2c1` (centres undefined) is 875 s; for `CN(C)[C@@H]1CN(C(=O)CCc2c[nH]c3ccccc23)C[C@H]1CO` it is 573 s.
The figure for `COc1ccccc1NC(=O)NCCCn1c(C(F)(F)F)nc2cccnc21` is 797 s.
The compound `c1ccc(-n2nnnc2SCCNCc2ccc3c(c2)OCCO3)cc1` displayed an RP-LC retention time of 634 s.
The figure for `COc1ccc(-n2ncc3c(=O)n(Cc4nc(-c5ccc(C(C)(C)C)cc5)no4)cnc32)cc1` is 1270 s.
The figure for `Cc1cccc(NC(=O)CN2C(=O)CCS(=O)(=O)c3ccccc32)c1` is 762 s.
For `COc1cccc(NC(=O)C2CCN(S(=O)(=O)c3cc(-c4noc(C)n4)cs3)CC2)c1`, the RP-LC retention time was found to be 883 s.
`CCc1noc(NC(C)=O)c1-c1ccc(C)c(S(=O)(=O)NCCc2ccccc2)c1` returned an RP-LC retention time of 855 s.
The figure for `CCc1ccccc1S(=O)(=O)N1CCC(n2cnnc2C(C)C)CC1` is 784 s; for `COc1ccc(-c2nc(NCCN(C)C3CCCCC3)c3ccccc3n2)cc1` it is 592 s.
The figure for `O=c1ccc(-c2ccc(Br)cc2)nn1Cc1nc(-c2cccs2)no1` is 1020 s.
The figure for `O=C(NCc1ccc2c(c1)OCO2)C1CCCN(c2nn3c(=O)c4c(nc3s2)CCCC4)C1` (centres undefined) is 719 s.
In turn, `COc1ccc(-c2nc(-c3cccc(-c4ccnn4C)c3)no2)cc1OC` registered an RP-LC retention time of 1020 s.
The figure for `O=C(c1ccc2c(c1)OCO2)N1CCC2(CC1)N=C(c1ccccc1)NO2` is 858 s; for `CCOc1ccc(C(O)CN2CCN(c3ccccn3)CC2)cc1Cl` (centres undefined) it is 591 s.
The figure for `Cc1ccccc1N1CC(C(=O)N(C)C)CC1=O` (centres undefined) is 628 s; for `O=C(C1CC(=O)N(c2ccc3c(c2)CCN3C(=O)C2CC2)C1)N1CCC2(CC1)OCCO2` (centres undefined) it is 652 s; for `Cc1ccc(Cn2c(=O)c3sccc3n(Cc3nc(-c4ccc(OC(C)C)cc4)no3)c2=O)cc1` it is 1280 s.
The figure for `COc1cccc(NC(=O)N2CCCC(Cn3cnc4cccnc43)C2)c1` (centres undefined) is 653 s; for `O=C(NCCCN1CCCCCC1)C1CCCN(c2nn3c(=O)c4c(nc3s2)CCCC4)C1` (centres undefined) it is 592 s.
In turn, `O=C(Cn1nc2n(c1=O)CCCC2)Nc1ccc(F)cc1` returned an RP-LC retention time of 651 s.
The figure for `Cc1c(C(=O)c2ccccc2)c2ccccc2n1C` is 1030 s; for `CCOC(=O)c1c(C)[nH]c(CCC(=O)NCCN2CCOCC2)c1C` it is 597 s; for `CCOc1ccccc1CNC(=O)C1CCN(Cc2c(C)n(CC)c3ccccc23)CC1` it is 780 s.
The figure for `COC(=O)c1c(C)[nH]c(C(=O)N2CCC(CC(=O)NCCC(C)N3CCCC3)CC2)c1C` (centres undefined) is 578 s; for `CCOc1cccc(-c2noc(Cn3ncn4nc(-c5ccccc5Cl)cc4c3=O)n2)c1` it is 1250 s.
For `COc1ccc(CNC(=O)c2cc3c(=O)n(C)ccc3n2C)cc1`, the RP-LC retention time was found to be 664 s.
The compound `C=C[C@H]1CN2CC[C@H]1C[C@H]2[C@H](O)c1ccnc2ccc(OC)cc12` had an RP-LC retention time of 592 s.
The figure for `COc1ccc2c(c1)C1(CCN(S(=O)(=O)c3ccc(NC(C)=O)cc3)C1)C(=O)N2` (centres undefined) is 686 s.
The figure for `O=C(Cc1cccc(F)c1)Nc1nnc(C2CC(=O)N(c3ccc(Cl)cc3)C2)o1` (centres undefined) is 800 s; for `CCCN1C(=O)COc2ccc(-c3noc(-c4cccc(Cl)c4)n3)cc21` it is 1350 s; for `O=C(Nc1ccc2c(c1)OCCO2)C1CCN(c2cc(N3CCSCC3)ncn2)CC1` it is 662 s.
The figure for `CCC(=O)N1CCc2cc(N3CC(C(=O)Nc4ccc(SC)cc4)CC3=O)ccc21` (centres undefined) is 789 s.
In turn, `O=C(c1ccsc1)N1CC(c2nc(CCOCC3CCOCC3)no2)C1` came in with an RP-LC retention time of 696 s.
For the compound `CCn1nc(C)c(CCNC(=O)c2ccc3c(c2)N(C)C(=O)C2CCCCN32)c1C` (centres undefined), the RP-LC retention time came out at 661 s.
The figure for `C=CCn1ccc2c(OCC(=O)NC3CCCC3)cccc2c1=O` is 788 s; for `O=C(NCc1ccc(F)cc1F)c1csc(C(=O)N2CCCC2)n1` it is 795 s; for `CCn1cnc2c(-c3ccccc3)cn(CC(=O)NCc3ccco3)c2c1=O` it is 796 s.
The figure for `Cc1ccc(NC(=O)NC2CCN(c3ccc(F)c(C)c3)C2=O)cc1C` (centres undefined) is 899 s.
The figure for `Fc1ccccc1CN1CCc2nc(N3CCOCC3)ncc2C1` is 590 s; for `COCCNC(=O)N1CCCCC1c1nncn1Cc1ccccc1` (centres undefined) it is 539 s.
`Cc1ccc2c(Nc3ccc(CC(=O)O)cc3)c(C(=O)N3CCCC3)cnc2n1` registered an RP-LC retention time of 572 s.
The figure for `O=C(Nc1ccc2c(c1)OCCO2)N1C[C@@H]2C[C@H]1C[C@@H]2NS(=O)(=O)c1ccccc1` is 678 s.
The figure for `COC(=O)C1C(=O)C2=C(CC1C)NC(C)=C(C(=O)OCCOC(C)C)C2c1cccc(F)c1` (centres undefined) is 961 s; for `Cc1nc(-c2ccc3c(c2)n(CC(=O)NC2CCCc4ccccc42)c(=O)n3C(C)C)no1` (centres undefined) it is 912 s.
The figure for `CCn1cc(-c2nc(C(=O)Nc3cccc(C#N)c3)cs2)c2cccnc21` is 1030 s; for `CCOC(=O)c1ccc(NC(=O)CN2CCN(Cc3ccccc3)C(=O)C2=O)cc1` it is 766 s.
As to `CC1CCCCN1S(=O)(=O)c1ccc2c(c1)CCC(=O)N2CC(=O)NCc1ccc(N(C)C)cc1` (centres undefined), the RP-LC retention time turned out to be 676 s.
`c1ccc(-c2noc(-c3ccc(N4CCN(C5CCCCC5)CC4)nc3)n2)cc1`: the RP-LC retention time turned out to be 772 s.
The figure for `Cc1cc(C)n(Cc2nc(-c3ccc(NC(=O)C(C)(C)C)cc3)oc2C)n1` is 904 s.
